Source: US20240239792A1, “MODULATORS OF BCL-2 OR BCL-2/BCL-XL AND USES THEREOF” (APPICINE THERAPEUTICS (HK) LIMITED, priority 2021, published 2024)

Experiments:
BCL-2 = target: T1, BCL-2 (Homo sapiens, UniProt P10415); test: HTRF BCL-2/BAK assay (Cisbio); type: binding; settings: recombinant human Tag1-BCL-2 2 nM, Tag2-BAK 10 nM
T1 construct: purchased Cisbio 63ADK000CB01PEG
Procedure: (§1) Then the pre-mixed anti-Tag1-Eu^3+ and anti-tag2-XL665 were added to the plate and further incubated at room temperature for another 2 hours. The signals ([…]) were read on Envision 2104 instrument. The IC50 for each compound was derived from fitting the signal of 665/615 nM to the increasing compound concentration.
(§2) Using the above assays, the following compounds were tested.

BCL-XL = target: T2, BCL-XL (Homo sapiens, UniProt Q07817); test: HTRF BCL-XL/BAK assay (Cisbio); type: binding; settings: recombinant human Tag1-BCL-XL 2 nM, Tag2-BAK 5 nM
T2 construct: purchased Cisbio 63ADK000CB04PEG
Procedure: as §1, §2

DOHH2 cells = test: CellTiter-Glo cell proliferation assay, DOHH2 cells; type: cell-based; settings: Homo sapiens, DOHH-2, 72 hours
Outline: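 GI50 derived from CellTiter-Glo luminescent viability signal. Cells grown in DMEM with 10% FBS received a compound dilution series for 72 h (37 °C, 5% CO2).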

[1] = test system: RS4;11 subcutaneous xenograft tumor; test: In vivo pharmacodynamic study, NOD/SCID RS4;11 subcutaneous xenograft tumor model; parameters: species or system NOD/SCID female mouse; settings: q.d., after 20 days dosing
Procedure: In general, NOD/SCID RS4;11 subcutaneous xenograft tumor model was established by inoculating 5*10^6/0.1 ml/mouse subcutaneously in the right back of the NOD/SCID female mouse. The animals were checked daily for any effects of treatments on behaviors such as mobility, food and water consumption, body weight gain/loss, eyes, hairs and any other abnormalities. Mortality and clinical signs observed during the study were recorded in the raw data. Animal weight and tumor size were measured every two days during the study. Tumor volume (TV) was calculated as: TV=0.5*a*b^2, wherein a and b represent the measured length and width of tumor, respectively. Relative tumor proliferation inhibition rate (TGIRTV (%)), as an indication of anti-tumor effectiveness, was calculated as: TGIRTV (%)=(1−TRTV/CRTV)*100%, wherein TRTV and CRTV were relative tumor volume (RTV) in treatment group and vehicle control group, respectively. RTV was calculated as: RTV=Vt/V0, wherein Vt and V0 represented the tumor volume measured on day t after dosing and on the first day of dosing. At the end of last dosing, plasma and tumor tissue were collected, weighed, and photographed according to requirements of the study protocol.
The TGIRTV(%) values after 20 days dosing were shown in Table 5 below, where “+++” represented TGIRTV(%)≥[…]; “++” represented 30%<TGIRTV(%)<80%. p.o. stands for “per os”; I.P. stands for “intraperitoneal”; q.d. refers to “once daily”.

CYP2C9 = target: T3, CYP2C9 (Homo sapiens, UniProt P11712); test: CYP2C9 activity assay in human liver microsomes, substrate diclofenac; type: in vitro ADME; settings: probe diclofenac, test compound 1 μM, 37° C. 10 min, read-out: Inhibition rate (%) against CYP2C9 Enzyme
T3 construct: from tissue; host or cells: human liver microsomes
Procedure: In this assay, several exemplary compounds of the present disclosure and a control compound (Venetoclax) were used as the test compounds. In general, the assay was conducted by the following steps: • 1. The solution of test compound, human liver microsomes solution, and substrate (diclofenac) solution were mixed in a 96-well assay plate on ice to, and the final concentration of each test compound is 1 μM; • 2. The 96-well assay plate and NADPH solution were pre-incubated at 37° C. for 5 minutes; • 3. NADPH solution was added to into the assay plates to initiate the reaction; • 4. The assay plate was incubated at 37° C. for 10 min; • 5. The reaction was stopped; and after quenching, a portion of the supernatant was taken from each well for LC/MS analysis; • 6. The inhibition rate was calculated by the following equation: Inhibition rate (%)=(1−Valuetest/Valuecontrol)×100%, where Valuetest refers to the LC/MS data obtained from wells with test compounds and Valuecontrol refers to the LC/MS data obtained from wells without test compound.

T1 sequence (P10415 whole entry): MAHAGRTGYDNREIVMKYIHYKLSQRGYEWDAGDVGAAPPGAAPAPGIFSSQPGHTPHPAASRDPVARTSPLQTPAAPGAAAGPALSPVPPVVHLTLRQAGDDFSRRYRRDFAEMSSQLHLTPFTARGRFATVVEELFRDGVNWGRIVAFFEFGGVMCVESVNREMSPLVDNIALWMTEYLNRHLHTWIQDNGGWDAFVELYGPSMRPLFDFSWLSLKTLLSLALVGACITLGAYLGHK
T3 sequence (P11712 whole entry): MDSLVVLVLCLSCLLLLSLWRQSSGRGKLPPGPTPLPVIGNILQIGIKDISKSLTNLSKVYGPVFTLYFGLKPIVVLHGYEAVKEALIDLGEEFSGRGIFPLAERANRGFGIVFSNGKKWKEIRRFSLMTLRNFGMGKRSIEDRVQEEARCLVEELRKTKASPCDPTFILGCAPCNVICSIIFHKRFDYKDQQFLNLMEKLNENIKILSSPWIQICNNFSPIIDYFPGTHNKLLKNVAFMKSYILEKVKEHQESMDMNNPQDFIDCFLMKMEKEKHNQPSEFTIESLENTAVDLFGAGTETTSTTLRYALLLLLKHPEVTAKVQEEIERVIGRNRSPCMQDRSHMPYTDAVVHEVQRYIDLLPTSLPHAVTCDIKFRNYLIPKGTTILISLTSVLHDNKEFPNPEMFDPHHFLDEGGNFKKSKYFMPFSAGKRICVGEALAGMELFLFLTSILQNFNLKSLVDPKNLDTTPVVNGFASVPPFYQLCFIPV
T2 sequence (Q07817 whole entry): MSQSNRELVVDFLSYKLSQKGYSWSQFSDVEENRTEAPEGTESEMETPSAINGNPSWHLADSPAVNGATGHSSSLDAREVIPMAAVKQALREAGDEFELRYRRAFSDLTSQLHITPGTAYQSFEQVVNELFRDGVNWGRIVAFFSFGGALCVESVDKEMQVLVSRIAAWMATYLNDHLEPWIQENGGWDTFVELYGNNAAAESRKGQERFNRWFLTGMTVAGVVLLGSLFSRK

Structure (SMILES) | IC50 (BCL-2) | IC50 (BCL-XL) | GI50 (DOHH2 cells) | TGIRTV(%) ([1]; 25 mg/kg, p.o.) | TGIRTV(%) ([1]; 60 mg/kg, p.o.) | inhibition at 10 min, 1 µM (CYP2C9) | TGIRTV(%) ([1]; 21 mg/kg, I.P.) | TGIRTV(%) ([1]; 50 mg/kg, p.o.)
O=C(NS(=O)(=O)c1ccc(NCCN2CCOCC2)c([N+](=O)[O-])c1)c1ccc(N2CCN(C3CCCCc4c(Cl)cccc43)CC2)cc1Oc1cnc2[nH]ccc2c1 (centres unmarked) [Compound 31, 2-((1H-pyrrolo[2,3-b]pyridin-5-yl)oxy)-4-(4-(1-chloro-6,7,8,9-tetrahydro-5H-benzo[7]annulen-5-yl)piperazin-1-yl)-N-((4-((2-morpholinoethyl)amino)-3-nitrophenyl)sulfonyl)benzamide] | < 20 nM | 20 to 200 nM | < 50 nM | ++ (30%<TGIRTV(%)<80%) | – | – | – | –
O=C(NS(=O)(=O)c1ccc(NCC2CCOCC2)c([N+](=O)[O-])c1)c1ccc(N2CCN([C@@H]3CCCCc4c(Cl)cccc43)CC2)cc1Oc1cnc2[nH]ccc2c1 [Compound 70, (R)-2-((1H-pyrrolo[2,3-b]pyridin-5-yl)oxy)-4-(4-(1-chloro-6,7,8,9-tetrahydro-5H-benzo[7]annulen-5-yl)piperazin-1-yl)-N-((3-nitro-4-(((tetrahydro-2H-pyran-4-yl)methyl)amino)phenyl)sulfonyl)benzamide] | < 20 nM | – | < 50 nM | – | +++ (TGIRTV(%)≥800) | – | – | –
O=C(NS(=O)(=O)c1ccc(NCC2CC3(CCNCC3)C2)c([N+](=O)[O-])c1)c1ccc(N2CCN([C@@H]3CCCCc4c(Cl)cccc43)CC2)cc1Oc1cnc2[nH]ccc2c1 [Compound 104, (R)-2-((1H-pyrrolo[2,3-b]pyridin-5-yl)oxy)-N-((4-(((7-azaspiro[3.5]nonan-2-yl)methyl)amino)-3-nitrophenyl)sulfonyl)-4-(4-(1-chloro-6,7,8,9-tetrahydro-5H-benzo[7]annulen-5-yl)piperazin-1-yl)benzamide] | < 20 nM | < 20 nM | < 50 nM | – | – | < 30% | +++ (TGIRTV(%)≥800) | –
CS(=O)(=O)N1CCC2(CC1)CC(CNc1ccc(S(=O)(=O)NC(=O)c3ccc(N4CCN([C@@H]5CCCCc6c(Cl)cccc65)CC4)cc3Oc3cnc4[nH]ccc4c3)cc1[N+](=O)[O-])C2 [Compound 107, (R)-2-((1H-pyrrolo[2,3-b]pyridin-5-yl)oxy)-4-(4-(1-chloro-6,7,8,9-tetrahydro-5H-benzo[7]annulen-5-yl)piperazin-1-yl)-N-((4-(((7-(methylsulfonyl)-7-azaspiro[3.5]nonan-2-yl)methyl)amino)-3-nitrophenyl)sulfonyl)benzamide] | < 20 nM | 20 to 200 nM | < 50 nM | – | – | 31% | – | –
CN1CCC2(CC1)CC(CNc1ccc(S(=O)(=O)NC(=O)c3ccc(N4CCN([C@@H]5CCCCc6c(Cl)cccc65)CC4)cc3Oc3cnc4[nH]ccc4c3)cc1[N+](=O)[O-])C2 [Compound 108, (R)-2-((1H-pyrrolo[2,3-b]pyridin-5-yl)oxy)-4-(4-(1-chloro-6,7,8,9-tetrahydro-5H-benzo[7]annulen-5-yl)piperazin-1-yl)-N-((4-(((7-methyl-7-azaspiro[3.5]nonan-2-yl)methyl)amino)-3-nitrophenyl)sulfonyl)benzamide] | < 20 nM | < 20 nM | < 50 nM | – | – | < 30% | – | –
CC(=O)NCCN1CCC2(CC1)CC(CNc1ccc(S(=O)(=O)NC(=O)c3ccc(N4CCN([C@@H]5CCCCc6c(Cl)cccc65)CC4)cc3Oc3cnc4[nH]ccc4c3)cc1[N+](=O)[O-])C2 [Compound 112, (R)-2-((1H-pyrrolo[2,3-b]pyridin-5-yl)oxy)-N-((4-(((7-(2-acetamidoethyl)-7-azaspiro[3.5]nonan-2-yl)methyl)amino)-3-nitrophenyl)sulfonyl)-4-(4-(1-chloro-6,7,8,9-tetrahydro-5H-benzo[7]annulen-5-yl)piperazin-1-yl)benzamide] | < 20 nM | < 20 nM | < 50 nM | – | – | 33% | – | –
O=C(NS(=O)(=O)c1ccc(NCC2CC3(CCN(CC(F)F)CC3)C2)c([N+](=O)[O-])c1)c1ccc(N2CCN([C@@H]3CCCCc4c(Cl)cccc43)CC2)cc1Oc1cnc2[nH]ccc2c1 [Compound 113, (R)-2-((1H-pyrrolo[2,3-b]pyridin-5-yl)oxy)-4-(4-(1-chloro-6,7,8,9-tetrahydro-5H-benzo[7]annulen-5-yl)piperazin-1-yl)-N-((4-(((7-(2,2-difluoroethyl)-7-azaspiro[3.5]nonan-2-yl)methyl)amino)-3-nitrophenyl)sulfonyl)benzamide] | < 20 nM | 20 to 200 nM | < 50 nM | – | – | < 30% | – | +++ (TGIRTV(%)≥800)
O=C(NS(=O)(=O)c1ccc(NCC2CC3(CCN(CCF)CC3)C2)c([N+](=O)[O-])c1)c1ccc(N2CCN([C@@H]3CCCCc4c(Cl)cccc43)CC2)cc1Oc1cnc2[nH]ccc2c1 [Compound 114, (R)-2-((1H-pyrrolo[2,3-b]pyridin-5-yl)oxy)-4-(4-(1-chloro-6,7,8,9-tetrahydro-5H-benzo[7]annulen-5-yl)piperazin-1-yl)-N-((4-(((7-(2-fluoroethyl)-7-azaspiro[3.5]nonan-2-yl)methyl)amino)-3-nitrophenyl)sulfonyl)benzamide] | < 20 nM | < 20 nM | < 50 nM | – | – | < 30% | – | +++ (TGIRTV(%)≥800)
O=C(NS(=O)(=O)c1ccc(NCC2CC3(CCN(CC(F)(F)F)CC3)C2)c([N+](=O)[O-])c1)c1ccc(N2CCN([C@@H]3CCCCc4c(Cl)cccc43)CC2)cc1Oc1cnc2[nH]ccc2c1 [Compound 115, (R)-2-((1H-pyrrolo[2,3-b]pyridin-5-yl)oxy)-4-(4-(1-chloro-6,7,8,9-tetrahydro-5H-benzo[7]annulen-5-yl)piperazin-1-yl)-N-((3-nitro-4-(((7-(2,2,2-trifluoroethyl)-7-azaspiro[3.5]nonan-2-yl)methyl)amino)phenyl)sulfonyl)benzamide] | < 20 nM | 200 to 2000 nM | 50 to 500 nM | – | – | < 30% | – | –
